Test results as given in the supplement of paper PMC10307832.

Assays:
Test in all cases: relative viability (nuclei count vs DMSO), 5 days (fraction); higher = more cells survive
Dabrafenib + Crizotinib = compound: CC(C)(C)c1nc(-c2cccc(NS(=O)(=O)c3c(F)cccc3F)c2F)c(-c2ccnc(N)n2)s1 [Dabrafenib] + C[C@@H](Oc1cc(-c2cnn(C3CCNCC3)c2)cnc1N)c1c(Cl)ccc(F)c1Cl [Crizotinib] (partner 1 µM)
How it was run: (§1)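 Each reported value is a median over duplicate plates. It expresses relative viability: treated-well nuclei count divided by vehicle-well nuclei count. Lung cancer cell lines in 1536-well plates were dosed by pin tool a day after seeding, alone with one drug or with a fixed anchor-drug dose plus five library-drug doses (not always all listed) in √10 steps, and nuclei were counted after 5 days.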

VX-702 + Palbociclib = compound: NC(=O)c1ccc(N(C(N)=O)c2c(F)cccc2F)nc1-c1ccc(F)cc1F [VX-702] + CC(=O)c1c(C)c2cnc(Nc3ccc(N4CCNCC4)cn3)nc2n(C2CCCC2)c1=O [Palbociclib] (partner 0.5 µM)
How it was run: as §1

VX-702 + Decitabine = compound: NC(=O)c1ccc(N(C(N)=O)c2c(F)cccc2F)nc1-c1ccc(F)cc1F [VX-702] + Nc1ncn([C@H]2C[C@H](O)[C@@H](CO)O2)c(=O)n1 [Decitabine] (partner 2 µM)
How it was run: as §1

Dabrafenib + Linsitinib = compound: CC(C)(C)c1nc(-c2cccc(NS(=O)(=O)c3c(F)cccc3F)c2F)c(-c2ccnc(N)n2)s1 [Dabrafenib] + C[C@]1(O)C[C@@H](c2nc(-c3ccc4ccc(-c5ccccc5)nc4c3)c3c(N)nccn32)C1 [Linsitinib] (partner 1 µM)
How it was run: as §1

NCI-H727
relative viability (Dabrafenib + Crizotinib; first compound 0.009487 µM): 1.01 | relative viability (Dabrafenib + Crizotinib; first compound 0.03 µM): 0.791 | relative viability (Dabrafenib + Crizotinib; first compound 0.09487 µM): 0.909 | relative viability (Dabrafenib + Crizotinib; first compound 0.3 µM): 0.84 | relative viability (VX-702 + Palbociclib; first compound 0.02 µM): 0.635 | relative viability (VX-702 + Palbociclib; first compound 0.2 µM): 0.641 | relative viability (VX-702 + Palbociclib; first compound 0.6325 µM): 0.613 | relative viability (VX-702 + Palbociclib; first compound 2 µM): 0.664 | relative viability (VX-702 + Decitabine; first compound 0.02 µM): 0.827 | relative viability (VX-702 + Decitabine; first compound 0.2 µM): 0.914 | relative viability (VX-702 + Decitabine; first compound 0.6325 µM): 0.753 | relative viability (VX-702 + Decitabine; first compound 2 µM): 0.822 | relative viability (Dabrafenib + Linsitinib; first compound 0.009487 µM): 0.312 | relative viability (Dabrafenib + Linsitinib; first compound 0.03 µM): 0.29 | relative viability (Dabrafenib + Linsitinib; first compound 0.09487 µM): 0.367 | relative viability (Dabrafenib + Linsitinib; first compound 0.3 µM): 0.465

NCI-H1993
relative viability (Dabrafenib + Crizotinib; first compound 0.003 µM): 0.86 | relative viability (Dabrafenib + Crizotinib; first compound 0.009487 µM): 0.946 | relative viability (Dabrafenib + Crizotinib; first compound 0.03 µM): 0.826 | relative viability (Dabrafenib + Crizotinib; first compound 0.09487 µM): 0.929 | relative viability (Dabrafenib + Crizotinib; first compound 0.3 µM): 1.06 | relative viability (VX-702 + Palbociclib; first compound 0.02 µM): 0.655 | relative viability (VX-702 + Palbociclib; first compound 0.2 µM): 0.696 | relative viability (VX-702 + Palbociclib; first compound 0.6325 µM): 0.69 | relative viability (VX-702 + Palbociclib; first compound 2 µM): 0.745 | relative viability (VX-702 + Decitabine; first compound 0.02 µM): 0.529 | relative viability (VX-702 + Decitabine; first compound 0.2 µM): 0.603 | relative viability (VX-702 + Decitabine; first compound 0.6325 µM): 0.54 | relative viability (VX-702 + Decitabine; first compound 2 µM): 0.578 | relative viability (Dabrafenib + Linsitinib; first compound 0.003 µM): 0.633 | relative viability (Dabrafenib + Linsitinib; first compound 0.009487 µM): 0.772 | relative viability (Dabrafenib + Linsitinib; first compound 0.03 µM): 0.658 | relative viability (Dabrafenib + Linsitinib; first compound 0.09487 µM): 0.835 | relative viability (Dabrafenib + Linsitinib; first compound 0.3 µM): 0.721

NCI-H2405
relative viability (Dabrafenib + Crizotinib; first compound 0.009487 µM): 0.78 | relative viability (Dabrafenib + Crizotinib; first compound 0.03 µM): 0.52 | relative viability (Dabrafenib + Crizotinib; first compound 0.09487 µM): 0.772 | relative viability (Dabrafenib + Crizotinib; first compound 0.3 µM): 0.82 | relative viability (VX-702 + Palbociclib; first compound 0.02 µM): 0.536 | relative viability (VX-702 + Palbociclib; first compound 0.2 µM): 0.515 | relative viability (VX-702 + Palbociclib; first compound 0.6325 µM): 0.457 | relative viability (VX-702 + Palbociclib; first compound 2 µM): 0.493 | relative viability (VX-702 + Decitabine; first compound 0.02 µM): 0.727 | relative viability (VX-702 + Decitabine; first compound 0.2 µM): 0.709 | relative viability (VX-702 + Decitabine; first compound 0.6325 µM): 0.709 | relative viability (VX-702 + Decitabine; first compound 2 µM): 0.759 | relative viability (Dabrafenib + Linsitinib; first compound 0.009487 µM): 0.967 | relative viability (Dabrafenib + Linsitinib; first compound 0.09487 µM): 0.735 | relative viability (Dabrafenib + Linsitinib; first compound 0.3 µM): 0.721

NCI-H661
relative viability (Dabrafenib + Crizotinib; first compound 0.003 µM): 1.07 | relative viability (Dabrafenib + Crizotinib; first compound 0.009487 µM): 0.958 | relative viability (Dabrafenib + Crizotinib; first compound 0.09487 µM): 0.96 | relative viability (Dabrafenib + Crizotinib; first compound 0.3 µM): 1.04 | relative viability (VX-702 + Palbociclib; first compound 0.02 µM): 0.413 | relative viability (VX-702 + Palbociclib; first compound 0.2 µM): 0.409 | relative viability (VX-702 + Palbociclib; first compound 0.6325 µM): 0.409 | relative viability (VX-702 + Palbociclib; first compound 2 µM): 0.408 | relative viability (VX-702 + Decitabine; first compound 0.02 µM): 0.567 | relative viability (VX-702 + Decitabine; first compound 0.2 µM): 0.583 | relative viability (VX-702 + Decitabine; first compound 0.6325 µM): 0.58 | relative viability (VX-702 + Decitabine; first compound 2 µM): 0.591 | relative viability (Dabrafenib + Linsitinib; first compound 0.003 µM): 0.501 | relative viability (Dabrafenib + Linsitinib; first compound 0.009487 µM): 0.594 | relative viability (Dabrafenib + Linsitinib; first compound 0.03 µM): 0.375 | relative viability (Dabrafenib + Linsitinib; first compound 0.09487 µM): 0.521 | relative viability (Dabrafenib + Linsitinib; first compound 0.3 µM): 0.52

HCC-366
relative viability (Dabrafenib + Crizotinib; first compound 0.009487 µM): 0.542 | relative viability (Dabrafenib + Crizotinib; first compound 0.03 µM): 0.436 | relative viability (Dabrafenib + Crizotinib; first compound 0.09487 µM): 0.44 | relative viability (Dabrafenib + Crizotinib; first compound 0.3 µM): 0.572 | relative viability (VX-702 + Palbociclib; first compound 0.02 µM): 0.409 | relative viability (VX-702 + Palbociclib; first compound 0.2 µM): 0.412 | relative viability (VX-702 + Palbociclib; first compound 0.6325 µM): 0.389 | relative viability (VX-702 + Palbociclib; first compound 2 µM): 0.333 | relative viability (VX-702 + Decitabine; first compound 0.02 µM): 0.331 | relative viability (VX-702 + Decitabine; first compound 0.2 µM): 0.305 | relative viability (VX-702 + Decitabine; first compound 0.6325 µM): 0.353 | relative viability (VX-702 + Decitabine; first compound 2 µM): 0.266 | relative viability (Dabrafenib + Linsitinib; first compound 0.009487 µM): 0.787 | relative viability (Dabrafenib + Linsitinib; first compound 0.03 µM): 0.0905 | relative viability (Dabrafenib + Linsitinib; first compound 0.09487 µM): 0.549 | relative viability (Dabrafenib + Linsitinib; first compound 0.3 µM): 0.892
